Laboratory results from PubChem BioAssay AID330 (DTP/NCI, 2004).
Values joined by “and” are separate entries in the source; they are usually repeats but may differ in a detail not shown here. Equal values may be shown once. Inconclusive results and toxic doses are left out. The calls were made as follows: active = survival T/C of 150% or more; inactive = T/C below 125% in these data.

Test system: P388 leukemia ip, CD2F1 mice, survival T/C
Test: NCI In Vivo Anticancer Drug Screen. Data for tumor model P388 Leukemia (intraperitoneal) in CD2F1 (CDF1) mice
Details: endpoint: median survival time, higher = longer survival
Summary of the method: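 Mice carrying the transplanted tumor received test compound or vehicle. Survival was recorded in each group, and the value is the treated-group measurement divided by that of the vehicle-treated control group.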

[1] = dose: 50.0 mg/kg/injection, schedule: Q01DX009 (ip), vehicle: Klucel (hydroxypropylcellulose) (HPC)
[2] = dose: 100.0 mg/kg/injection, schedule: Q01DX009 (ip), vehicle: Klucel (hydroxypropylcellulose) (HPC)
[3] = dose: 50.0 mg/kg/injection, schedule: Q01DX005 (ip), vehicle: saline with Tween-80
[4] = dose: 100.0 mg/kg/injection, schedule: Q01DX005 (ip), vehicle: saline with Tween-80
[5] = dose: 100.0 mg/kg/injection, schedule: Q04DX003 (ip), vehicle: saline with Tween-80
[6] = dose: 200.0 mg/kg/injection, schedule: Q04DX003 (ip), vehicle: saline with Tween-80
[7] = dose: 400.0 mg/kg/injection, schedule: Q04DX003 (ip), vehicle: saline with Tween-80
[8] = dose: 100.0 mg/kg/injection, schedule: Q01DX001 (ip), vehicle: saline with Tween-80
[9] = dose: 200.0 mg/kg/injection, schedule: Q01DX001 (ip), vehicle: saline with Tween-80
[10] = dose: 25.0 mg/kg/injection, schedule: Q01DX005 (ip), vehicle: Klucel (hydroxypropylcellulose) (HPC)
[11] = dose: 50.0 mg/kg/injection, schedule: Q01DX005 (ip), vehicle: Klucel (hydroxypropylcellulose) (HPC)
[12] = dose: 100.0 mg/kg/injection, schedule: Q01DX005 (ip), vehicle: Klucel (hydroxypropylcellulose) (HPC)
[13] = dose: 200.0 mg/kg/injection, schedule: Q01DX005 (ip), vehicle: Klucel (hydroxypropylcellulose) (HPC)
[14] = dose: 50.0 mg/kg/injection, schedule: Q01DX009 (ip), vehicle: saline with Tween-80
[15] = dose: 100.0 mg/kg/injection, schedule: Q01DX009 (ip), vehicle: saline with Tween-80
[16] = dose: 200.0 mg/kg/injection, schedule: Q01DX009 (ip), vehicle: saline with Tween-80

Measured: T/C

CN(C)c1ccc(/C=N/O)cc1
inactive: dose: 12.5 mg/kg/injection, schedule: Q01DX009 (ip), vehicle: Klucel (hydroxypropylcellulose) (HPC) 86 % of control | dose: 25.0 mg/kg/injection, schedule: Q01DX009 (ip), vehicle: Klucel (hydroxypropylcellulose) (HPC) 101 % of control and 103 % of control and 110 % of control | [1] 103 % of control and 113 % of control | [2] 104 % of control and 113 % of control | dose: 200.0 mg/kg/injection, schedule: Q01DX009 (ip), vehicle: Klucel (hydroxypropylcellulose) (HPC) 96 % of control

CCOC(=O)CCC1(C(=O)OC)C(=O)CCCCCCCC1C(=O)OC (stereo not given)
inactive: [3] 101 % of control | [4] 98 % of control | dose: 200.0 mg/kg/injection, schedule: Q01DX005 (ip), vehicle: saline with Tween-80 94 % of control

CC(C)(C)C(=O)CC(=O)C(F)(F)C(F)(F)C(F)(F)F.CC(C)(C)C(=O)CC(=O)C(F)(F)C(F)(F)C(F)(F)F.CC(C)(C)C(=O)CC(=O)C(F)(F)C(F)(F)C(F)(F)F.[Gd]
inactive: dose: 60.0 mg/kg/injection, schedule: Q01DX005 (ip), vehicle: saline with Tween-80 105 % of control | dose: 120.0 mg/kg/injection, schedule: Q01DX005 (ip), vehicle: saline with Tween-80 110 % of control | dose: 240.0 mg/kg/injection, schedule: Q01DX005 (ip), vehicle: saline with Tween-80 105 % of control

O=C1NC(=O)C(c2ccccc2)(c2ccccc2)N1CCS
inactive: dose: 12.5 mg/kg/injection, schedule: Q04DX003 (ip), vehicle: saline 108 % of control | dose: 25.0 mg/kg/injection, schedule: Q04DX003 (ip), vehicle: Klucel (hydroxypropylcellulose) (HPC) 98 % of control and 108 % of control | dose: 25.0 mg/kg/injection, schedule: Q04DX003 (ip), vehicle: saline 100 % of control | dose: 50.0 mg/kg/injection, schedule: Q04DX003 (ip), vehicle: Klucel (hydroxypropylcellulose) (HPC) 98 % of control and 99 % of control | dose: 50.0 mg/kg/injection, schedule: Q04DX003 (ip), vehicle: saline 104 % of control | dose: 100.0 mg/kg/injection, schedule: Q04DX003 (ip), vehicle: Klucel (hydroxypropylcellulose) (HPC) 97 % of control | dose: 100.0 mg/kg/injection, schedule: Q04DX003 (ip), vehicle: saline 108 % of control | dose: 200.0 mg/kg/injection, schedule: Q04DX003 (ip), vehicle: Klucel (hydroxypropylcellulose) (HPC) 100 % of control and 117 % of control | dose: 200.0 mg/kg/injection, schedule: Q04DX003 (ip), vehicle: saline 94 % of control | dose: 400.0 mg/kg/injection, schedule: Q04DX003 (ip), vehicle: Klucel (hydroxypropylcellulose) (HPC) 106 % of control and 109 % of control

Nc1cc2c(c[n+](CCC[n+]3cc4c5ccccc5c(N)cc4c4ccccc43)c3ccccc23)c2ccccc12
inactive: dose: 3.13 mg/kg/injection, schedule: Q04DX003 (ip), vehicle: other 94 % of control | dose: 6.25 mg/kg/injection, schedule: Q04DX003 (ip), vehicle: other 102 % of control | dose: 12.5 mg/kg/injection, schedule: Q04DX003 (ip), vehicle: other 93 % of control | dose: 25.0 mg/kg/injection, schedule: Q04DX003 (ip), vehicle: other 92 % of control | dose: 50.0 mg/kg/injection, schedule: Q04DX003 (ip), vehicle: other 93 % of control | dose: 100.0 mg/kg/injection, schedule: Q04DX003 (ip), vehicle: other 86 % of control

CC(C)c1ccc(OC(=N)c2ccccc2)cc1
inactive: [5] 98 % of control | [6] 100 % of control | [7] 89 % of control

CC(=O)ON(C(=O)c1ccc([N+](=O)[O-])cc1)c1ccc(C=O)cc1
inactive: [8] 102 % of control | [9] 101 % of control

O=C(/C=C/c1ccc(F)cc1)c1ccc(Cl)cc1
inactive: [5] 90 % of control | [6] 86 % of control | [7] 100 % of control

CCCCn1c(CCC)nc([N+](=O)[O-])c1Sc1ncn[nH]1
inactive: [10] 98 % of control | [11] 117 % of control and 118 % of control | [12] 114 % of control | [13] 122 % of control and 123 % of control

NC(=S)c1ccc(Br)cc1
inactive: [1] 97 % of control | [2] 104 % of control

O=C(Nc1ccc(C(=O)Nc2cccc(C3=NCCN3)c2)cc1)Nc1ccc(C(=O)Nc2cccc(C3=NCCN3)c2)cc1
inactive: dose: 100.0 mg/kg/injection, schedule: Q01DX001 (ip), vehicle: saline 108 % of control | dose: 200.0 mg/kg/injection, schedule: Q01DX001 (ip), vehicle: saline 100 % of control | dose: 400.0 mg/kg/injection, schedule: Q01DX001 (ip), vehicle: saline 116 % of control

CC(C)(C)N=S=Nc1c(F)c(F)c(F)c(F)c1F
inactive: [3] 110 % of control | [4] 106 % of control

O=C1/C(=C/c2ccccc2)CCC/C1=C\c1ccccc1
inactive: dose: 25.0 mg/kg/injection, schedule: Q01DX009 (ip), vehicle: saline with Tween-80 104 % of control | [14] 104 % of control | [15] 100 % of control

O=C(CNOCc1ccccc1)OCc1ccccc1
inactive: dose: 12.5 mg/kg/injection, schedule: Q01DX009 (ip), vehicle: other 88 % of control | dose: 25.0 mg/kg/injection, schedule: Q01DX009 (ip), vehicle: other 96 % of control | dose: 50.0 mg/kg/injection, schedule: Q01DX009 (ip), vehicle: other 99 % of control | dose: 100.0 mg/kg/injection, schedule: Q01DX009 (ip), vehicle: other 97 % of control | dose: 200.0 mg/kg/injection, schedule: Q01DX009 (ip), vehicle: other 108 % of control

CC1(C)N=C(N)N=C(N)N1c1ccc(OCC(=O)N2CCOCC2)c(Cl)c1
inactive: dose: 25.0 mg/kg/injection, schedule: Q01DX009 (ip), vehicle: saline 109 % of control | dose: 50.0 mg/kg/injection, schedule: Q01DX009 (ip), vehicle: saline 116 % of control | dose: 100.0 mg/kg/injection, schedule: Q01DX009 (ip), vehicle: saline 107 % of control | dose: 100.0 mg/kg/injection, schedule: Q04DX003 (ip), vehicle: saline sonified 113 % of control

Cn1cc([N+](=O)[O-])c([N+](=O)[O-])c1
inactive: [14] 102 % of control | [15] 103 % of control | [16] 102 % of control

COc1ccc(N2CC=C(c3ccccc3)OP2(=O)N2CC2)cc1 (stereo not given)
inactive: [11] 106 % of control | [12] 105 % of control | [13] 95 % of control

C=CCN=C(NC(C)(C)C)c1ccccc1
inactive: [11] 107 % of control | [12] 96 % of control

CC(=O)NC#N.CCN(CC)CC.[CH-]1CCCCC1.[CH-]1CCCCC1.[CH-]1CCCCC1.[Cl-].[Sn+4]
inactive: dose: 3.12 mg/kg/injection, schedule: Q01DX005 (ip), vehicle: saline with Tween-80 106 % of control | dose: 6.25 mg/kg/injection, schedule: Q01DX005 (ip), vehicle: saline with Tween-80 105 % of control

Cc1ccc(S(=O)(=O)NC(=O)NC(=S)c2cccs2)cc1
inactive: dose: 50.0 mg/kg/injection, schedule: Q01DX001 (ip), vehicle: saline with Tween-80 98 % of control | [8] 97 % of control | [9] 91 % of control

O=C1OC(c2ccccc2)=N/C1=C/c1c(-c2ccccc2)c(-c2ccccc2)c2n1CCC2
inactive: [11] 86 % of control | [12] 86 % of control | [13] 86 % of control

Cn1c(C2(C)C(=O)NC(=O)c3cnccc32)cc2ccccc21 (stereo not given)
inactive: dose: 100.0 mg/kg/injection, schedule: Q04DX002 (ip), vehicle: Klucel (hydroxypropylcellulose) (HPC) 103 % of control | dose: 200.0 mg/kg/injection, schedule: Q04DX002 (ip), vehicle: Klucel (hydroxypropylcellulose) (HPC) 92 % of control

O=C1/C(=N\O)Cc2cc(Cl)ccc21
inactive: dose: 12.0 mg/kg/injection, schedule: Q01DX005 (ip), vehicle: Klucel (hydroxypropylcellulose) (HPC) 101 % of control | [10] 111 % of control | [11] 101 % of control and 97 % of control

Cn1c2cc(Cl)c(Cl)cc2nc2cc3c(cc21)c(Cl)c(=O)c1ccccc13
inactive: [14] 104 % of control | [15] 100 % of control | [16] 98 % of control

Clc1cccc2c(SCCCCCCCSc3c4ccccc4nc4c(Cl)cccc34)c3ccccc3nc12
inactive: dose: 60.0 mg/kg/injection, schedule: Q01DX005 (ip), vehicle: Klucel (hydroxypropylcellulose) (HPC) 93 % of control | dose: 120.0 mg/kg/injection, schedule: Q01DX005 (ip), vehicle: Klucel (hydroxypropylcellulose) (HPC) 91 % of control | dose: 240.0 mg/kg/injection, schedule: Q01DX005 (ip), vehicle: Klucel (hydroxypropylcellulose) (HPC) 90 % of control
